# Laboratory results taken from patent US20250352603A1, “VALERIAN COMPOSITION FOR SLEEP MANAGEMENT” (OMNIACTIVE HEALTH TECHNOLOGIES LIMITED, priority 2022, published 2025).
# Assays:
# Format in all cases: in vivo, mice
# [1] = test system: GABAAR2, GABAB R1, GABAB R2, 5-HT1A; test: Western blot of brain GABAergic and serotonergic receptors; details: CM: caffeine then 2 mg/kg i.p.; vs C group
# Procedure: (§1) Working solutions of caffeine, melatonin, and valerian were prepared on a daily basis and administered intraperitoneally (i.p.). Based on the previous studies caffeine-induced insomnia is dose-dependent with 7.5 mg/kg i.p. caffeine maintaining wakefulness for at least 2 h. Electrical activity of the brain was monitored for 90 minutes following the caffeine injection and spike frequency/spike amplitude analysis was performed via the Labchart 7.3.3 program. Ninety (90) minutes after the caffeine injection, animals were deeply anesthetized with 4% isofluorane (30% O2, remainder N2O). Brains were rapidly removed, frozen on dry ice and stored at −80° C. for further analysis.
# (§2) Protein concentrations were determined using Western blot analysis. 50 μg of protein was electrophoresed on 4-15% Tris-Glycine polyacrylamide gels and transferred to Immobilon-P PVDF membranes, blocked for 1 h in 5% skim milk and incubated overnight at 4° C. with either GABAAR2, GABAB R1, GABAB-R2, 5H-T1A, GluA1, GluN1, GluN2 A, Bcl-2, Bax, and Caspase-3. Membranes were then incubated with horseradish peroxidase (HRP) conjugated IgG secondary antibody. Bands were quantified using Image software and normalized to actin as a loading control.
# [2] = test system: serum serotonin, dopamine, melatonin; test: Serum melatonin, serotonin and dopamine by ELISA kits; details: CM: caffeine then 2 mg/kg i.p.
# Procedure: as §1
# (§3) Serum melatonin, serotonin, and dopamine was measured by ELISA kits. Brain levels of MDA was measured by HPLC. Brain activities of SOD, CAT and GPHx was measured using ELISA kits.
# [3] = test system: brain tissue MDA, SOD, CAT, GPx; test: Brain oxidative stress markers (MDA by HPLC; SOD, CAT, GPx by ELISA kits); details: CM: caffeine then 2 mg/kg i.p.; vs C group
# Procedure: as §1, §3
# [4] = test system: GluA1, GluN2A, GluN1; test: Western blot of brain glutamate receptors; details: CM: caffeine then 2 mg/kg i.p.; vs C group
# Procedure: as §1, §2
# [5] = test system: Bax, Bcl-2, Caspase-3; test: Western blot of brain Bax, Bcl-2 and Caspase-3; details: CM: caffeine then 2 mg/kg i.p.; vs C group
# Procedure: as §1, §2
smiles,measurement,setting,value
COc1ccc2[nH]cc(CCNC(C)=O)c2c1 [Melatonin],brain 5-HT1A levels,[1],significantly increased
same,brain GABAB R1,[1],significant increase
same,serum dopamine levels,[2]; vs C group,significant increase
same,serum serotonin levels,[2]; vs C group,significant increase
same,melatonin levels in serum,[2]; vs all the other groups,significantly higher
same,brain CAT,[3],significant increase
same,brain GPx,[3],significant increase
same,brain MDA levels,[3],significant reduction
same,brain SOD,[3],significant increase
same,brain GluA1 receptors,[4],significant increase
same,brain GluN1 receptors,[4],significant increase
same,brain GluN2A receptors,[4],significant increase
same,brain Bax,[5],significant increase
same,brain Bcl-2,[5],significant decrease
same,brain Caspase-3,[5],significant increase
